Assay results as given in paper PMC11820944, “Safirinium Fluorescent “Click” Molecular Probes: Synthesis, CuAAC Reactions, and Microscopic Imaging” (Molecules, 2025).

What was measured:
[1] = system: CHO-K1 cells; assay: Cellular uptake and distribution by fluorescence (confocal) microscopy; type: cell-based, Chinese hamster; settings: 10 µM, 30 min
Protocol: Figure 6 Cellular uptake and intracellular distribution of selected probes (1 and 6) and triazole derivatives (11, 12, 13, and 15) in Chinese hamster ovary cells. CHO-K1 cells were cultured overnight and then incubated with the tested compounds (10 μM). Representative images (100× magnification) illustrating intracellular distribution of the compounds in CHO-K1 cells were captured after 30 min of incubation with the tested compounds. Scale bar = 20 μm.
CHO-K1 cells were seeded at a density of 2 × 10^5/well in 12-well plates containing cover slips at the bottom and cells were incubated for 24 h. Then, cells were fixed in 3.7% formaldehyde in PBS for 10 min in 37 °C, washed twice with PBS, and stained with compound solution (10 µM) for 30 min. After this time, the cells were rinsed 2 times with Gibco FluoroBrite DMEM and a coverslip was placed on a stock carrier with drops of culture medium. Finally, slides were mounted in ProLong™ Glass Antifade Mountant and visualized under an A1 confocal system built on a Nikon Eclipse Ti-E microscope (Japan) equipped with 405 and 561 nm diode lasers and a Plan Apo 100×/1.4 Oil DIC objective.

[2] = Chemical stability of aqueous solution in daylight, RP-HPLC with fluorescence detection; type: physicochemical
Text: To assess the chemical stability of Safirinium-based alkyne probes for RP-HPLC analysis, we developed a preliminary RP-HPLC method with fluorescent detection for the alkyne probe 1. This was accomplished using an LC-PCN column and a simple isocratic elution approach. Subsequently, we prepared a 10^−6 M aqueous solution of probe 1 and kept it exposed to natural daylight on a laboratory bench for 7 days. […] Assuming pseudo-first-order kinetics, it can be calculated that probe 1 can remain stable (95%) under such conditions for 12 h.
RP-HPLC analyses with fluorescence detection (Method B) were performed on a LaChrom Elite HPLC system, (VWR-Hitachi, Japan), equipped with a L-2130 pump, a L-2485 FL detector, a L-2350 column oven, and an L-2200 autosampler, the system was controlled with EZChrom Elite version 3.2, Agilent software. Separations were performed on a SUPELCOSIL LC-PCN 250 × 4.6 mm column with 5 µm grain size, under 1 mL/min isocratic elution with 50:50 v/v water: acetonitrile mixture, acidified with 0.1% formic acid. Injection volume was 20 µL; 10^−6 mol/dm^3 solution of probe 1 in water was prepared in a clear HPLC sample vial and analyzed directly after preparation and after 7 days (168 h) of standing on a lab bench, exposed to natural daylight at room temperature. Example chromatograms are presented in the electronic supporting information.

[3] = Fluorescence emission spectra and quantum yields (comparative method); type: physicochemical; settings: for λ Emission: 1·10^-6 mol/dm^3, 365 nm excitation; for Fluorescence Quantum Yield: against A1 standard
Protocol: Fluorescence spectra were recorded using a Hitachi F-70000 spectrofluorimeter (P VWR-Hitachi, Japan), for 1 × 10^−6 mol/dm^3 solutions of the compounds in water and acetonitrile, at 365 nm excitation wavelength, using 5 nm excitation and 2.5 nm emission slits, and 700 V photomultiplier voltage. The spectra (Figures S2 and S4) were recorded in 400–700 nm range. The 1 × 10^−6 mol/dm^3 solutions were prepared by 100-fold dilution of the solutions used for absorption measurement.
Quantum yields of fluorescence (Table 1) were determined using the comparative method, from Formula (1), using the recorded absorption and emission spectra and diethyl Safirinium P zwitterion A1 (ϕ = 0.755 in water) as standard.(1) Φ=ΦstdFAstdnstd2/FstdAn^2 where ϕ, ϕstd—quantum yields; F, Fstd—integrals under fluorescence emission curves; A, Astd—absorbance at excitation wavelength, and n, nstd—refractive indices, for the compound and standard (std subscript), respectively.

[4] = MTT cell viability assay, NIH-3T3 cells; type: cell-based; settings: mouse, 24 h incubation, read-out: IC50 (cytotoxicity, cell viability)
Text: (§1) CHO-K1 cell line was derived as a subclone from the parental CHO cell line, which was initiated from a biopsy of an ovary of an adult, female Chinese hamster commercially available in ATCC (CCL-61™). NIH-3T3 cell line was obtained from DSMZ, the German Collection of Microorganisms and Cell Cultures. CHO-K1 and NIH-3T3 cells were cultivated in F-12K Medium (ATCC 30-2004) and Dulbecco’s MEM with Glutamax™ 1 Medium (Gibco, Paisley, UK), respectively. Culture media were supplemented with fetal bovine serum (FBS, Gibco, Thermo Fisher Scientific, Waltham, MA, USA) to a final concentration of 10% and antibiotic to final concentration of 1% (pent/strept, Gibco, Thermo Fisher Scientific, Waltham, MA, USA). Cells were cultured in standard culture conditions (5% CO2, 37 °C, 95% humidity).
Cell viability was determined by the 3-(4,5-dimethylthiazol-2-yl)-2,5-diphenyltetrazolium bromide (MTT, Sigma Aldrich, Burlington, MA, USA) assay. Cells were seeded into 96-well plates at density of 2 × 10^4 cell/well and cultured in the presence of compounds (1–4, 6–9, 11–13, and 15) at concentration range 1.56–100 µM for 24 h. The MTT reagent (final concentration 0.5 mg/mL) was added to each well for 3 h, and then formazan crystals were dissolved in DMSO. The absorbance was measured at 570 nm (SpectraMax® iD3, Molecular Devices, San Jose, CA, USA) and the experiment was performed two times in duplicates. Cells viability was expressed as a percentage of viability (in comparison to non-treated cells normalized to 100%). Data were analyzed using GraphPad Prism Software (GraphPad Software, Inc., San Diego, CA, USA, version 10.3.1).

[5] = in vitro; type: cell-based; settings: Chinese hamster
Text: as §1
Cell viability was determined by the 3-(4,5-dimethylthiazol-2-yl)-2,5-diphenyltetrazolium bromide (MTT, Sigma Aldrich, Burlington, MA, USA) assay. […] The absorbance was measured at 570 nm (SpectraMax® iD3, Molecular Devices, San Jose, CA, USA) and the experiment was performed two times in duplicates. Cells viability was expressed as a percentage of viability (in comparison to non-treated cells normalized to 100%). Data were analyzed using GraphPad Prism Software (GraphPad Software, Inc., San Diego, CA, USA, version 10.3.1).

[6] = design: method as in PMID 23893376; settings: in water; cited from earlier work

Structure (SMILES): C#CCNC(=O)C1=C(C)C=C(C)N2C[N+](CC)(CC)N=C12.[Br-] [Compound 1, 2,2-Diethyl-5,7-dimethyl-8-[(prop-2-yn-1-yl)carbamoyl]-2H,3H-[1,2,4]triazolo [4,3-a]pyridin-2-ium bromide]
- Cellular uptake and intracellular distribution [1]: capable of entering the cytoplasm of the cells; however, they did not penetrate the nuclei
- half-life ([2]; 10^-6 M aqueous solution exposed to natural daylight): ~168 h
- RP-HPLC peak area decrease ([2]; 10^-6 M aqueous solution, natural daylight, room temperature, 7 days): 50%
- Time of remaining stable (95%) ([2]; aqueous solution exposed to daylight, assuming pseudo-first-order kinetics): 12 h
- λ Emission ([3]; Acetonitrile): 443 nm
- Fluorescence Quantum Yield ([3]; Acetonitrile): 0.86
- λ Emission ([3]; H2O): 446 nm
- Fluorescence Quantum Yield ([3]; H2O): 1.00

Structure (SMILES): C#CCNC(=O)C1=C(C)C=C(C)N2C[N+](CCCCCCCC)(CCCCCCCC)N=C12 [Compound 2, 5,7-Dimethyl-2,2-dioctyl-8-(prop-2-yn-1-ylcarbamoyl)-2,3-dihydro-[1,2,4]triazolo[4,3-a]pyridin-2-ium bromide]
- IC50 at 24 h [4]: 17.5 µM

Structure (SMILES): C#CCNC(=O)C1=Cc2ccccc2N2C[N+](CC)(CC)N=C12.[Br-] [Compound 3, 2,2-Diethyl-4-(prop-2-yn-1-ylcarbamoyl)-1,2-dihydro-[1,2,4]triazolo[4,3-a]quinolin-2-ium bromide]
- λ Emission ([3]; Acetonitrile): 455 nm
- Fluorescence Quantum Yield ([3]; Acetonitrile): 0.71
- λ Emission ([3]; H2O): 462 nm
- Fluorescence Quantum Yield ([3]; H2O): 0.62

Structure (SMILES): C#CCNC(=O)C1=Cc2ccccc2N2C[N+](CCCCCCCC)(CCCCCCCC)N=C12 [Compound 4, 2,2-Dioctyl-4-(prop-2-yn-1-ylcarbamoyl)-1,2-dihydro-[1,2,4]triazolo[4,3-a]quinolin-2-ium bromide]
- IC50 at 24 h [5]: 17.3 µM
- IC50 at 24 h [4]: 8.7 µM

Structure (SMILES): CC[N+]1(CC)CN2C(C)=CC(C)=C(C(=O)NCCCCCN=[N+]=[N-])C2=N1.[Br-] [Compound 6, 8-((5-Azidopentyl)carbamoyl)-2,2-diethyl-5,7-dimethyl-2,3-dihydro-[1,2,4]triazolo[4,3-a]pyridin-2-ium bromide]
- Cellular uptake and intracellular distribution [1]: capable of entering the cytoplasm of the cells; however, they did not penetrate the nuclei

Structure (SMILES): CCCCCCCC[N+]1(CCCCCCCC)CN2C(C)=CC(C)=C(C(=O)NCCCCCN=[N+]=[N-])C2=N1 [Compound 7, 8-((5-Azidopentyl)carbamoyl)-5,7-dimethyl-2,2-dioctyl-2,3-dihydro-[1,2,4]triazolo[4,3-a]pyridin-2-ium bromide]
- IC50 at 24 h [4]: 26.4 µM

Structure (SMILES): CC[N+]1(CC)CN2C(=N1)C(C(=O)NCCCCCN=[N+]=[N-])=Cc1ccccc12.[Br-] [Compound 8, 4-((5-Azidopentyl)carbamoyl)-2,2-diethyl-1,2-dihydro-[1,2,4]triazolo[4,3-a]quinolin-2-ium bromide]
- λ Emission ([3]; Acetonitrile): 452 nm
- Fluorescence Quantum Yield ([3]; Acetonitrile): 0.68
- λ Emission ([3]; H2O): 459 nm
- Fluorescence Quantum Yield ([3]; H2O): 0.60

Structure (SMILES): CCCCCCCC[N+]1(CCCCCCCC)CN2C(=N1)C(C(=O)NCCCCCN=[N+]=[N-])=Cc1ccccc12 [Compound 9, 4-((5-Azidopentyl)carbamoyl)-2,2-dioctyl-1,2-dihydro-[1,2,4]triazolo[4,3-a]quinolin-2-ium bromide]
- IC50 at 24 h [5]: 11 µM
- IC50 at 24 h [4]: 13 µM

Structure (SMILES): CCCCCCCCCCCCCCn1cc(CNC(=O)C2=C(C)C=C(C)N3C[N+](CC)(CC)N=C23)nn1.[Br-] [Compound 11, 2,2-Diethyl-5,7-dimethyl-8-(((1-tetradecyl-1H-1,2,3-triazol-4-yl)methyl)carbamoyl)-2,3-dihydro-[1,2,4]triazolo[4,3-a]pyridin-2-ium bromide]
- Cellular uptake and intracellular distribution [1]: capable of entering the cytoplasm of the cells; however, they did not penetrate the nuclei
- λ Emission ([3]; Acetonitrile): 443 nm
- Fluorescence Quantum Yield ([3]; Acetonitrile): 0.86
- λ Emission ([3]; H2O): 446 nm
- Fluorescence Quantum Yield ([3]; H2O): 0.28

Structure (SMILES): CC[N+]1(CC)CN2C(=N1)C(C(=O)NCc1cn(C3O[C@H](COC(C)=O)[C@@H](OC(C)=O)[C@H](OC(C)=O)[C@H]3OC(C)=O)nn1)=Cc1ccccc12.[Br-] (stereo partly drawn) [Compound 12, 2,2-Diethyl-4-(((1-((3R,4S,5R,6R)-3,4,5-triacetoxy-6-(acetoxymethyl)tetrahydro-2H-pyran-2-yl)-1H-1,2,3-triazol-4-yl)methyl)carbamoyl)-1,2-dihydro-[1,2,4]triazolo[4,3-a]quinolin-2-ium bromide]
- Cellular uptake and intracellular distribution [1]: capable of entering the cytoplasm of the cells; however, they did not penetrate the nuclei

Structure (SMILES): CC[N+]1(CC)CN2C(=N1)C(C(=O)NCc1cn(C3CC(n4cc(C)c(=O)[nH]c4=O)OC3CO)nn1)=Cc1ccccc12 (stereo not shown) [Compound 13, 4-(((1-((2-(hydroxymethyl)-5-(5-methyl-2,4-dioxo-1,2,3,4-tetrahydropyrimidin-1-yl)oxolan-3-yl)-1H-1,2,3-triazol-4-yl)methyl)carbamoyl)-2,2-diethyl-1,2-dihydro-[1,2,4]triazolo[4,3-a]quinolin-2-ium bromide]
- Cellular uptake and intracellular distribution [1]: capable of entering the cytoplasm of the cells; however, they did not penetrate the nuclei
- λ Emission ([3]; Acetonitrile): 452 nm
- Fluorescence Quantum Yield ([3]; Acetonitrile): 0.45
- λ Emission ([3]; H2O): 462 nm
- Fluorescence Quantum Yield ([3]; H2O): 0.59

Structure (SMILES): CC[N+]1(CC)CN2C(=N1)C(C(=O)NCCCCCn1cc(CO)nn1)=Cc1ccccc12.[Br-] [Compound 15, 2,2-Diethyl-4-({5-[4-(hydroxymethyl)-1H-1,2,3-triazol-1-yl]pentyl}carbamoyl)-1H,2H-[1,2,4]triazolo[4,3-a]quinolin-2-ium bromide]
- Cellular uptake and intracellular distribution [1]: capable of entering the cytoplasm of the cells; however, they did not penetrate the nuclei
- λ Emission ([3]; Acetonitrile): 454 nm
- Fluorescence Quantum Yield ([3]; Acetonitrile): 0.53
- λ Emission ([3]; H2O): 459 nm
- Fluorescence Quantum Yield ([3]; H2O): 0.55

Structure (SMILES): CC[N+]1(CC)CN2C(C)=CC(C)=C(C(=O)[O-])C2=N1 [Compound A1]
- Fluorescence quantum yield (ϕ) of standard [6]: 0.755
